Data: PMC6376031, “Enhanced anti-tumor activity of the Multi-Leu peptide PACE4 inhibitor transformed into an albumin-bound tumor-targeting prodrug” (Scientific Reports, 2019)
Where a SMILES comes first, the peptide text is derived from it.

What was measured:
[1] = parameters: method as in PMID 25682874; settings: cited from earlier work
in vitro = in vitro ADME; settings: mouse, plasma
Excerpt: Figure 1S. Plasma ex vivo stability profile of the ML and C23 inhibitor determined by Ultra Performance Liquid Chromatography (UPLC).

DU145 cells [2] = test: LDH release acute cytotoxicity assay; assay type: cell-based; settings: for LDH release DU145: 4 h incubation, selected concentrations
Method: (§1) The inhibitory constant (Ki) was calculated from the IC50 values using the equation of Cheng and Prusoff. Data are the mean ± SD of three independent experiments. The concentration of peptides that inhibited cell growth by 50% (IC50) was determined by MTT cell survival assays in DU145 and LNCaP cell lines. Data represent the mean ± SEM of three independent experiments. Acute cytotoxicity of the compounds at the selected concentrations was measured by lactate dehydrogenase (LDH) assay after 4 h of incubation with DU145 cells. […] Previously published compound: [a] ref.[12]. ML inhibitor was used as control and was re-assayed in presented experiments.
(§2) DU145 and LNCaP cells were maintained at low passages (below 30) and cultured in RPMI 1640 (Wisent Bioproducts, QC) with 5 and 10% fetal bovine serum, respectively. For MTT proliferation assays 3500 LNCaP (on poly-L-lysine coated wells) or 1500 DU145 cells were seeded in 96-well plates, and after 24 h, the cells were treated with various concentrations of inhibitors (from 300 to 1 μM). Next, the cells were incubated for 72 h with peptides prior to addition of MTT reagent (Sigma–Aldrich, Canada) at a final concentration of 1 mg/mL. Formazan salt was solubilized with 50 μL DMSO and the metabolic activity was normalized relatively to vehicle-treated cells (sterile bi-distilled water). IC50 values were determined using Prism 5.0 (GraphPad Software, USA), as previously described. For LDH assay, the LDH Cytotoxicity Detection Kit (Promega, USA) was used to quantify the release of lactate dehydrogenase following membrane disruption. As described in our previous work[15], DU145 cells were seeded at a density of 3000 cells/well and allowed to incubate for 24 h. Then, the media was subsequently replaced and cells were incubated with compounds at the selected concentration. Cells treated with 1% SDS were used as a control for maximal LDH release and further relative quantification.

recombinant human PACE4 = biological target: T1, recombinant human PACE4 (Homo sapiens, UniProt P29122); test: Enzyme kinetic inhibition of recombinant hPACE4; assay type: biochemical; settings: calculated from IC50 by Cheng and Prusoff, mean ± SD of three experiments
T1 construct: made in house
T1 sequence (P29122 150-969): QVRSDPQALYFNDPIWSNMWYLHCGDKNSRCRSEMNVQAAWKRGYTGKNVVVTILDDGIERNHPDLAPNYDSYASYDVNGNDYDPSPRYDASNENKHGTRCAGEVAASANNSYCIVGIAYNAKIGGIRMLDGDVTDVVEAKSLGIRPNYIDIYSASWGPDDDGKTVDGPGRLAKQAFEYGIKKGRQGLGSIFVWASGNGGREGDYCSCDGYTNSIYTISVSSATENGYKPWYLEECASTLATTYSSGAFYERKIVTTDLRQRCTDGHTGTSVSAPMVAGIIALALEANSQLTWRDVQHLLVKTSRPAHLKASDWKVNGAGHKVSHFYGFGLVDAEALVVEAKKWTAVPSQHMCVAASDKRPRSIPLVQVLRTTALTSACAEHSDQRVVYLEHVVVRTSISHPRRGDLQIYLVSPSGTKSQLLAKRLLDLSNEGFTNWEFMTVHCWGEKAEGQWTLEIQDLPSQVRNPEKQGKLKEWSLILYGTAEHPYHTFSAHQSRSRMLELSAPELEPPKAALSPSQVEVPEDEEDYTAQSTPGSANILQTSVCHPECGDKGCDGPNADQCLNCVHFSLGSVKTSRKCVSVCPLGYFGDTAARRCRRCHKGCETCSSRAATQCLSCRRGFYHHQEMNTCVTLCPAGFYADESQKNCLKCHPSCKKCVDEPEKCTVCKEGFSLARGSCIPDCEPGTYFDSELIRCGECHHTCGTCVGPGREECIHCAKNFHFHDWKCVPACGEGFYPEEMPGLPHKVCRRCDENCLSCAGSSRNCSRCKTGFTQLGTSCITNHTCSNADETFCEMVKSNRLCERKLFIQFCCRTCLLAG
Method: as §1
Enzyme kinetic measurements were performed with recombinant hPACE4 as described previously. Enzyme and substrate concentrations used in the present study are presented in Supplementary Table S2.

LNCaP cells = settings: 72 h
Method: as §1, §2

DU145 cells [3] = settings: 72 h
Method: as §1, §2

[4] = biological target: T2, mouse serum albumin (MSA) (Mus musculus, UniProt P07724); test: MSA conjugation assay; assay type: binding; settings: PBS pH 7.4, 37 °C; RP-HPLC and MALDI-TOF
T2 construct: purchased Equitech-Bio; Inc., USA
T2 sequence (P07724 25-608): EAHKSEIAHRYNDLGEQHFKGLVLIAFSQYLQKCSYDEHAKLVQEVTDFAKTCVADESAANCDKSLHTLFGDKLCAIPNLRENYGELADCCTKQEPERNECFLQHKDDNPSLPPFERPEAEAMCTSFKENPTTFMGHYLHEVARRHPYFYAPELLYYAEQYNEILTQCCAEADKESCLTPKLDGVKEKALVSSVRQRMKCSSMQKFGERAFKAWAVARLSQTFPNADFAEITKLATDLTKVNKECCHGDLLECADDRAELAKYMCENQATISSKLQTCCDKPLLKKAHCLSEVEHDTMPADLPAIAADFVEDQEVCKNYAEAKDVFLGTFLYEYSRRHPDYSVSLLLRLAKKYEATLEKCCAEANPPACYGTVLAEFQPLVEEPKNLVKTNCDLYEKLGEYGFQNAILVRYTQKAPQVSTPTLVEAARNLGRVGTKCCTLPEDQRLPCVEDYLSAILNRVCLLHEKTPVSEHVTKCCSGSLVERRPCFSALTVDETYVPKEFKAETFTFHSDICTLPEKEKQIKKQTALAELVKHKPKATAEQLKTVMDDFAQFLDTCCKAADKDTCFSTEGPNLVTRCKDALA
Excerpt: RP-HPLC and MALDI-TOF analysis were used to confirm completion of the reaction.

human PSA (hPSA) = biological target: T3, human PSA (hPSA) (Homo sapiens, UniProt P07288); test: hPSA cleavage of prodrugs; assay type: biochemical; settings: extended incubation time up to 24 h; RP-HPLC
T3 construct: enzymatically active hPSA extracted from seminal fluid (Millipore, USA); purchased Millipore, USA; host or cells: human seminal fluid
T3 sequence (P07288 25-261): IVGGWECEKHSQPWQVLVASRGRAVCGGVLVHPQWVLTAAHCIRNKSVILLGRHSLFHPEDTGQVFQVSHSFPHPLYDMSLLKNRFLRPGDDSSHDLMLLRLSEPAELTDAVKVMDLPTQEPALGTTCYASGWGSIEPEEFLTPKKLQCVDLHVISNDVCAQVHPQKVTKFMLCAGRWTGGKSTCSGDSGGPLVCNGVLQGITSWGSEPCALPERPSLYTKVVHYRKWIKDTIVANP
Method: To determine PSA cleavage efficiency, peptide (125 µM final concentration; approximately 20 µg) were incubated with a final concentration of 20 µg/mL of enzymatically active hPSA extracted from seminal fluid (Millipore, USA) in 50 mM Tris buffer pH 7.4. Samples were analyzed by RP-HPLC (using 35 µL of the reaction solution) by comparing the resulting cleavage product over a standard curve generated using a synthetic cleaved peptide (peptides 1–4). The number of nmol of a cleaved peptide produced over time was then used to calculate the specific activity in pmol product/min/100 pmol PSA to compare the different substrate peptide between each other.

[5] = 4 h incubation with DU145 cells at 100 μM

## CC(=O)N[C@H](CC(C)C)C(=O)N[C@@H](CC(C)C)C(=O)N[C@@H](CC(C)C)C(=O)N[C@@H](CC(C)C)C(=O)N[C@@H](CCCNC(=N)N)C(=O)N[C@H](C(=O)N[C@@H](CCCCN)C(=O)NCc1ccc(C(=N)N)cc1)C(C)C [C23, Ac-[DLeu]LLLRVK-amidinobenzylamide] (HELM PEPTIDE1{[ac].[dL].L.L.L.R.V.K.[N=C(N)c1ccc(CN[*:1])cc1]}$$$$V2.0)
[1]
  in vivo half-life (t1/2): 9 ± 3 min
[1]; radiolabeled version
  time post-injection after which rapidly eliminated: 20 min
In vitro
  half-life: 104 ± 3.6 min

## CC(C)C[C@H](NC(=O)Cc1ccc(NC(=O)[C@H](CC(C)C)NC(=O)[C@@H](N)CO)cc1)C(=O)N[C@@H](CC(C)C)C(=O)N[C@@H](CC(C)C)C(=O)N[C@@H](CC(C)C)C(=O)N[C@@H](CCCNC(=N)N)C(=O)N[C@H](C(=O)N[C@@H](CCCCN)C(=O)N[C@@H](CCCNC(=N)N)C(N)=O)C(C)C [Peptide 2] (HELM PEPTIDE1{S.L.[O=C(Cc1ccc(N[*:1])cc1)[*:2]].L.L.L.L.R.V.K.R.[am]}$$$$V2.0)
DU145 cells [2]; 4 h incubation with DU145 cells at the IC50 concentration
  LDH release relative to the untreated cells: < 5%
DU145 cells [2]
  LDH release DU145: < 5%
Recombinant human PACE4
  Ki: 68 ± 10 nM
LNCaP cells
  IC50: 50 ± 10 µM
DU145 cells [3]
  IC50: 19 ± 7 µM

## CC(C)C[C@H](NC(=O)CCCNC(=O)[C@H](CC(C)C)NC(=O)[C@@H](N)CO)C(=O)N[C@@H](CC(C)C)C(=O)N[C@@H](CC(C)C)C(=O)N[C@@H](CC(C)C)C(=O)N[C@@H](CCCNC(=N)N)C(=O)N[C@H](C(=O)N[C@@H](CCCCN)C(=O)N[C@@H](CCCNC(=N)N)C(N)=O)C(C)C [Peptide 3] (HELM PEPTIDE1{S.L.[O=C(CCCN[*:1])[*:2]].L.L.L.L.R.V.K.R.[am]}$$$$V2.0)
DU145 cells [2]; [5]
  LDH release relative to the untreated cells: < 5%
DU145 cells [2]
  LDH release DU145: < 5%
Recombinant human PACE4
  Ki: 56 ± 4 nM

## CC(C)C[C@H](NC(=O)COCCOCCNC(=O)[C@H](CC(C)C)NC(=O)[C@@H](N)CO)C(=O)N[C@@H](CC(C)C)C(=O)N[C@@H](CC(C)C)C(=O)N[C@@H](CC(C)C)C(=O)N[C@@H](CCCNC(=N)N)C(=O)N[C@H](C(=O)N[C@@H](CCCCN)C(=O)N[C@@H](CCCNC(=N)N)C(N)=O)C(C)C [Peptide 4] (HELM PEPTIDE1{S.L.[O=C(COCCOCCN[*:1])[*:2]].L.L.L.L.R.V.K.R.[am]}$$$$V2.0)
DU145 cells [2]; [5]
  LDH release relative to the untreated cells: < 5%
DU145 cells [2]
  LDH release DU145: < 5%
Recombinant human PACE4
  Ki: 62 ± 3 nM

## Ac-LLLLRVKR-NH2 [ML, reference compound]
DU145 cells [2]
  LDH release DU145: < 5%
In vitro
  half-life: 7.8 ± 2.3 min
LNCaP cells
  IC50: 130 ± 10 µM
DU145 cells [3]
  IC50: 90 ± 2 µM

## EMC-RSSYYSLLLLLRVKR-NH2 ({EMC}-RSSYYSLLLLLRVKR-NH2) [Ligand 1]
[4]
  time to full conjugation to MSA: 1 h

## EMC-RSSYYSL[4-Apaa]LLLLRVKR-NH2 [Ligand 2]
[4]
  time to full conjugation to MSA: 1 h

## MSA-EMC-RSSYYSLLLLLRVKR-NH2 [prodrug 1]
Human PSA (hPSA)
  release of the ML derivative by hPSA: no release product was detected
